From ChEMBL document CHEMBL1201862, “PubChem BioAssay data set” (2004) come the findings set out here.

Holding throughout (experiment): growth of human tumour cells (NCI), 48 h
Assay [1] relates to A498.
For assay [2], the system named is CCRF-CEM.
The test system of assay [3] is COLO 205.
In assay [4] the test system is HCC 2998.
Assay [5] has as its system MOLT-4.
Assay [6] deals with NCI-H23.
For assay [7], the system named is OVCAR-3.
Assay [8] deals with OVCAR-5.
Assay [9] relates to SK-MEL-28.
For assay [10], the system named is SK-MEL-2.
The subject of assay [11] is SK-MEL-5.
For assay [12], the system named is SK-OV-3.
Assay [13] relates to SNB-19.
Assay [14] concerns SW-620.
Assay [15] relates to UACC-257.
Assay [16] deals with OVCAR-8.
Assay [17] concerns RPMI-8226.
Assay [18] has as its system SN12C.

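Cultured in 96-well plates, cells were exposed to test compound for 48 hours across five concentrations. GI50 is the concentration that inhibits growth by half.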 Activity calls are given as the source filed them. No stated cut-off is given here; in the data, active = GI50 up to about 1.1 µM and inactive = higher.

Regarding `CCOC(=O)c1c2ccc(/C=C/c3ccccc3)ccc-2c(C(=O)OCC)c1N`, the GI50 in [1] was 36.1 µM (inactive); in assay [2], > 100 µM (inactive); in [3] it was > 100 µM (inactive); in [4], 95.5 µM (inactive); in [5] it was > 100 µM (inactive); in assay [6] it was 32 µM (inactive). Moreover, the GI50 is > 100 µM (inactive) in assay [7]; > 100 µM (inactive) in assay [8]; > 100 µM (inactive) in [9]; > 100 µM (inactive) in assay [10]; > 100 µM (inactive) in assay [11]; 86.1 µM (inactive) in [12]. Moreover, the GI50 in [13], in [14] and in [15] was > 100 µM (inactive) in each case.

For `C=C1C(OC(=O)/C=C/c2ccccc2)CC(OC(C)=O)C2(C)C1CC1CC(OC(C)=O)C(C)=C(C(OC(C)=O)C2OC(C)=O)C1(C)C` (stereo not drawn), the GI50 in assay [1] was 31.6 µM (inactive); in assay [2] it was 5.25 µM (inactive); in assay [3], 34 µM (inactive); in [4], 7.71 µM (inactive); in [5], 4.61 µM (inactive); in [8] it was > 100 µM (inactive). Moreover, the GI50 was > 100 µM (inactive) in assay [16]; 3.13 µM (inactive) in [17]; 4.1 µM (inactive) in [11]; > 100 µM (inactive) in assay [12]; > 100 µM (inactive) in [18]; > 100 µM (inactive) in [13]. Moreover, the GI50 in assay [14] was > 100 µM (inactive).

In the case of `COC(=O)[C@@H]1CCCCC[C@H]2C(CO)=C(C)C(=O)C12` (stereo partly drawn), the GI50 in assay [1], in assay [2], in [3], in assay [4], in assay [5] and in assay [6] was > 100 µM (inactive) each time. Further, the GI50 in assay [8], in [16], in assay [17], in [9], in [10] and in assay [11] was > 100 µM (inactive) throughout. The GI50 in [12], in assay [18], in [13], in assay [14] and in [15] was > 100 µM (inactive) throughout.

Consider `O=C(CC1S/C(=N\c2ccccc2Cl)NC1=O)Nc1ccc(Cl)cc1` (stereo not drawn), for which the GI50 in [1] is > 100 µM (inactive); in assay [2] it was > 100 µM (inactive); in assay [3], 26.4 µM (inactive); in [4], > 100 µM (inactive); in assay [6], > 100 µM (inactive); in assay [8] it was > 100 µM (inactive). Moreover, the GI50 in [9], in assay [10], in assay [11], in [12], in assay [18] and in assay [13] was > 100 µM (inactive) each time. The figures for the GI50 in [14] and in assay [15] were 10.6 µM (inactive) and > 100 µM (inactive), respectively.

Take `CC1(OCc2ccccc2)C(=O)N2C1NCC2(C)C` (stereo not drawn): the GI50 in assay [1], in assay [2], in [3], in [4], in assay [5] and in assay [6] was > 100 µM (inactive) throughout. Further, the GI50 in assay [7], in assay [16], in assay [17], in assay [9], in assay [10] and in assay [11] was > 100 µM (inactive) each time. In addition, the GI50 in [18], in assay [13], in assay [14] and in [15] was > 100 µM (inactive) throughout.

In the case of `Cc1cc(C)nc(NS(=O)(=O)c2ccc(NC(=O)c3ccc(Cl)c4c(Nc5ccc(S(=O)(=O)Nc6cc(C)on6)cc5)c5ccccc5nc34)cc2)n1`, the GI50 in assay [1] was 15.3 µM (inactive); in assay [3] it was 18.1 µM (inactive); in assay [4], 18.7 µM (inactive); in assay [5] it was 22.9 µM (inactive); in assay [6], 14.5 µM (inactive); in [7], 16.6 µM (inactive). The GI50 in assay [8] is 21 µM (inactive); in assay [16], 15.5 µM (inactive); in assay [17], 17.9 µM (inactive); in [9], 18.4 µM (inactive); in assay [11], 16.4 µM (inactive); in assay [12] it was 19.4 µM (inactive). Moreover, the GI50 in assay [18] is 17.9 µM (inactive); in assay [13] it was 17 µM (inactive); in assay [14] it was 17.3 µM (inactive); in assay [15], 18.2 µM (inactive).

As to `O=C1C[C@@H]2[C@@H](C=CC23CC3)N1O`, the GI50 in [1], in assay [2], in [3], in [4], in assay [5] and in [6] was > 100 µM (inactive) each time. For the same compound, the GI50 in assay [8], in assay [16], in assay [17], in [9], in assay [10] and in assay [11] was > 100 µM (inactive) throughout. Also, the GI50 in assay [12], in assay [18], in assay [13], in assay [14] and in [15] was > 100 µM (inactive) throughout.

Regarding `NCCCNCCCCN(CCCN)/[N+]([O-])=N\O`, the GI50 in assay [2], in [3], in assay [4], in [5], in [6] and in assay [7] was > 100 µM (inactive) in each case. For the same compound, the GI50 was > 100 µM (inactive) in assay [8]; > 100 µM (inactive) in [16]; 29.8 µM (inactive) in assay [17]; > 100 µM (inactive) in assay [9]; > 100 µM (inactive) in assay [10]; > 100 µM (inactive) in assay [11]. Further, the GI50 in assay [18], in assay [13], in [14] and in [15] was > 100 µM (inactive) each time.

With `COc1nc(NC2OC(COC(C)=O)C(OC(C)=O)C(OC(C)=O)C2OC(C)=O)c(/N=C/C=N/c2c(NC3OC(COC(C)=O)C(OC(C)=O)C(OC(C)=O)C3OC(C)=O)nc(OC)[nH]c2=O)c(=O)[nH]1` (stereo not drawn), the GI50 in assay [1], in assay [2], in [3], in [4], in assay [5] and in assay [6] was > 100 µM (inactive) throughout. Moreover, the GI50 in assay [7], in assay [8], in assay [16], in assay [17], in assay [9] and in assay [11] was > 100 µM (inactive) each time. Further, the GI50 in assay [12], in assay [18], in assay [13], in assay [14] and in [15] was > 100 µM (inactive) each time.

For the compound `Clc1cc(Cl)c2ns[s+]c2c1Cl`, the GI50 was > 100 µM (inactive) in assay [1]; > 100 µM (inactive) in assay [2]; > 100 µM (inactive) in [3]; > 10 µM (inactive) in assay [4]; > 100 µM (inactive) in assay [5]; 0.132 µM (active) in assay [6]. For the same compound, the GI50 in assay [7], in assay [8], in assay [16], in [9], in assay [10] and in assay [11] was > 100 µM (inactive) each time. The GI50 in assay [12], in assay [18], in assay [13], in assay [14] and in assay [15] was > 100 µM (inactive) each time.

Take `CC(C)c1cc(C(C)C)c(S(=O)(=O)NN)c(C(C)C)c1`: the GI50 in assay [1], in assay [3], in [6], in [7], in assay [8] and in [16] was > 100 µM (inactive) throughout. In addition, the GI50 in assay [17], in assay [9], in [10], in assay [11], in assay [18] and in [13] was > 100 µM (inactive) in each case. For the same compound, the GI50 in [14] and in assay [15] was > 100 µM (inactive) each time.

For `Cn1cnc(CCc2ccccc2)n1`, the GI50 in [1], in assay [2], in [3], in assay [5], in assay [6] and in assay [7] was > 100 µM (inactive) in each case. Also, the GI50 in assay [8], in assay [16], in [17], in assay [9], in assay [10] and in [11] was > 100 µM (inactive) throughout. Besides, the GI50 in assay [12], in assay [18], in [14] and in assay [15] was > 100 µM (inactive) each time.
